Laboratory results as given in patent US20250018030A1, “PHARMACEUTICAL COMPOSITION FOR PROMOTING CANCER IMMUNOTHERAPY AND METHOD FOR PROMOTING CANCER IMMUNOTHERAPY” (China Medical University, priority 2023, published 2025).

Legend:
Tc1 cells [1] = assay: Intracellular cytokine staining / flow cytometry of genipin-treated skewed Tc1 cells; type: cell-based, Mouse; settings: added to genipin-treated Tc1 cells; FIG. 2R-2S
Procedure: Mouse lymph nodes and spleens were harvested, and naïve CD4 or CD8 T cells isolated via magnetic bead separation (STEMCELL Technologies) and activated in α-CD3 (10 μg/ml) and α-CD28 (1 μg/ml) pre-coated 96-well plates. Skewing conditions were as follows: Th1 cells/Tc1 cells ([…] 10 μ/ml α-IL-4), Th2 cells/Tc2 cells (20 ng/ml IL-4 and 10 μ/ml α-IFN-γ), Th17 cells/Tc17 cells (20 ng/ml IL-6, 1.25 ng/ml […], 20 ng/ml IL-1β, 20 ng/ml IL-23, 10 μg/ml α-IFN-γ and 10 μg/ml α-IL-4), and Treg cells (5 ng/ml TGF-β, 10 μg/ml α-IFN-γ and 10 μg/ml α-IL-4) in the indicated medium. Cells were cultured for 4-5 days followed by treatment with genipin (3.125 μM, 6.25 μM, 12.5 μM) or DMSO for 12-16 hours.
Monoclonal antibodies were purchased from BD Biosciences or eBioscience. For intracellular cytokine staining (ICS), cells were first restimulated by PMA/ionomycin for 5 hours in the presence of GolgiStop (BD Biosciences), followed by surface epitope staining markers before being fixed/permeabilized (BD Cytofix/Cytoperm™) and stained with antibodies targeting intracellular antigens. Cells were finally fixed with 1.5% formaldehyde for 10 minutes at room temperature and analyzed on a FACSVerse flow cytometer (BD Bioscience). Data were analyzed using FlowJo software (Tree Star Inc.).

Tc1 cells [2] = assay: Metabolic assays (Seahorse ECAR/OCR, mitochondrial pyruvate and acetyl CoA) in Tc1 cells; type: cell-based, Mouse; settings: UK5099 40 μM added to genipin-treated Tc1 cells; FIG. 2G-2L
Procedure: The real-time extracellular acidification rate (ECAR) and oxygen consumption rate (OCR) were measured using a Seahorse XF24 analyzer (Seahorse Bioscience), within XF Glycolysis Stress and XF Cell Mito Stress Test kits used to assess glycolysis and oxidative phosphorylation. 5×10^5 cells exposed to the indicated treatments were plated in an XF-24 microplate coated with Cell-Tak (Corning) one day before the assay. ECAR and OCR were measured after metabolic manipulations by the addition of oligomycin, carbonyl cyanide-p-trifluoromethoxy-phenylhydrazone (FCCP), 2-deoxyglucose (2-DG) and rotenone/anti-mycin A (R/A). Calculations were conducted with Agilent Seahorse Wave Software for Agilent Seahorse XF analyzers (Seahorse Bioscience). For isolation of mitochondria, Tc1 cells were frozen and thawed to weaken the membranes and resuspended in Reagent A of a mitochondria isolation kit (ab110170, Abcam), before being homogenized and centrifuged at 1,000×g for 10 minutes at 4° C. Supernatant was saved (SN #1) and the pellet resuspended in Reagent B. After homogenization and centrifugation, supernatant was saved (SN #2). SN #1 and SN #2 were mixed thoroughly and centrifuged at 12,000×g for 15 minutes at 4° C. The pellet was collected in Reagent C supplemented with protease inhibitors and was used for the pyruvate and acetyl COA assays. Briefly, the mitochondrial pyruvate and acetyl CoA levels in the Tc1 cells were assessed using a commercial Pyruvate Assay Kit (ab65342, Abcam) and PicoProbe Acetyl COA Assay Kit (ab87546, Abcam) according to the manufacturer's instructions.

SMILES: N#C/C(=C\c1cn(-c2ccccc2)c2ccccc12)C(=O)O [UK5099]
- T-bet expression in genipin-treated (UCP2-deprived) Tc1 cells, effect of added inhibitor (Tc1 cells [1]): blocked the positive regulation of T-bet
- Genipin-driven Tc1 effects (mitochondrial acetyl CoA, mitochondrial pyruvate, histone H3 acetylation, H3K9 acetylation, OCR, IFN-γ), effect of added inhibitor (Tc1 cells [2]): could be reversed
